Here are results for 2 compounds from article PMC6017366, “Characterization of Two VAO-Type Flavoprotein Oxidases from Myceliophthora thermophila” (Molecules : A Journal of Synthetic Chemistry and Natural …, 2018).

One assay deals with T1, MtVAO615 (Thermothelomyces thermophilus, UniProt G2QDQ9).
T1 construct: gene MYCTH_2305637; mature secreted protein, signal peptide (first 26 residues) removed; homologous expression in M. thermophila C1; N-glycosylated; bicovalent FAD (His157, Cys222); predicted 60 kDa, about 70 kDa on SDS-PAGE
The assay can be described thus: X-ray crystal structure ([…] and […] Å). Format: binding. Particulars: covalent; bicovalent 6-S-cysteinyl (Cys222) and 8alpha-N1-histidyl (His157) FAD; crystals at pH 7.5 and pH 5.0.

A further assay deals with T2, MtVAO713 (Thermothelomyces thermophilus, UniProt G2QMS8).
T2 construct: gene MYCTH_2309690; mature secreted protein, signal peptide (first 26 residues) removed; homologous expression in M. thermophila C1; monocovalent FAD (His159); N-glycosylated at Asn103 and Asn131; about 60 kDa on SDS-PAGE, 53 kDa by gel filtration
The assay can be described thus: GC/MS of conversion to 12-ketooleic acid. Format: biochemical. The settings on record: 5 mM ricinoleic acid, 8 µM enzyme, 16 h; oxygen as electron acceptor; 50 mM Tris/Cl pH 8.0, 10% DMSO, 30 or 37 °C; very poor substrate.

Structures are written as SMILES.

T1 sequence (G2QDQ9 27-574): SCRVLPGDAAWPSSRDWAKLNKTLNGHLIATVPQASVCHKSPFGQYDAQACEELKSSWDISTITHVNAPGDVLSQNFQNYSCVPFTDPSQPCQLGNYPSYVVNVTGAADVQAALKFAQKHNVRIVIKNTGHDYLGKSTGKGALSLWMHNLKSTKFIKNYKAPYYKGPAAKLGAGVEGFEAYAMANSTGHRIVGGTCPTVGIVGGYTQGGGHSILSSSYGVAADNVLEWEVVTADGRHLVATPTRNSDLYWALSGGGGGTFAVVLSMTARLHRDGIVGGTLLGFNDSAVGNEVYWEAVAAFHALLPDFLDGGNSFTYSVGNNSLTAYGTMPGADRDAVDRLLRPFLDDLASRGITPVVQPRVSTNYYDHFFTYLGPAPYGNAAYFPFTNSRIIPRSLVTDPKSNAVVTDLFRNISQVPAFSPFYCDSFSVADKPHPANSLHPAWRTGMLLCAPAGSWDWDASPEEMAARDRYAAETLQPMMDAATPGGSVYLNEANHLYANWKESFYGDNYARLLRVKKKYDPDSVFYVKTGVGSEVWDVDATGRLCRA
T2 sequence (G2QMS8 entry or part of it): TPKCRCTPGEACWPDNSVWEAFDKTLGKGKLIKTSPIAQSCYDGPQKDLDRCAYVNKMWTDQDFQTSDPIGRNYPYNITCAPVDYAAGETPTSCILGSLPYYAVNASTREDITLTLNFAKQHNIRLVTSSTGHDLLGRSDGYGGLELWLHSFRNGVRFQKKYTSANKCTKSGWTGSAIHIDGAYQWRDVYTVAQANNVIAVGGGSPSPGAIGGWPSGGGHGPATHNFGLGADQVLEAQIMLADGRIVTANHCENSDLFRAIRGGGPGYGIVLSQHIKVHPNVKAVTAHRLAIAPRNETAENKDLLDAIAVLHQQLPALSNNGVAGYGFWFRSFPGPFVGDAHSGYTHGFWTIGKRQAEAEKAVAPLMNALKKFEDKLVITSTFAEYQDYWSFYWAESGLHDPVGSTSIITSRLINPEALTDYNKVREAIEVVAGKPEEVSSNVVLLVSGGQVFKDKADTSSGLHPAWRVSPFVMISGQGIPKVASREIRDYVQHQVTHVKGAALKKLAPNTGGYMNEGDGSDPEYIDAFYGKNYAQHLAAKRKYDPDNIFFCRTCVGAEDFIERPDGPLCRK

As to `Cc1cc2nc3c(=O)[nH]c(=O)nc-3n(C[C@H](O)[C@H](O)[C@H](O)COP(=O)(O)OP(=O)(O)OC[C@H]3O[C@@H](n4cnc5c(N)ncnc54)[C@H](O)[C@@H]3O)c2cc1C` [FAD], the “X-ray crystal structure (2.0 and 2.2 Å)” value on MtVAO615 is on record as “MtVAO615 harbors a bicovalently linked 6-S-cysteinyl-8α-N1-histidyl FAD”.

Turning to `CCCCCC[C@@H](O)C/C=C\CCCCCCCC(=O)O` [ricinoleic acid], the “GC/MS of conversion to 12-ketooleic acid” value at MtVAO713 is “The conversion of ricinoleic acid by MtVAO713 was confirmed by GC/MS analysis”.
